The results in this text go back to ChEMBL document CHEMBL3627600, “Rapid synthesis and antimicrobial activity of novel 4-oxazolidinone heterocycles” (2015).

Converted amounts (≈) assume the structure as drawn.

The MIC is the lowest concentration found to suppress growth.

What all share (assay type): functional
For one experiment, the system named is Acinetobacter baumannii. As to the kind of experiment: Antimicrobial activity against Acinetobacter baumannii ATCC 19606.
Experiment [1] relates to Staphylococcus aureus. As to the kind of experiment: Antimicrobial activity against methicillin-resistant Staphylococcus aureus ATCC 33591.
Experiment [2] concerns Staphylococcus aureus. As to the kind of experiment: Antimicrobial activity against Staphylococcus aureus ATCC 29213.

For the compound `CCCCCC1NC(=O)/C(=C/c2cc(Br)c(OC)c(Br)c2)O1` (stereo not drawn), the MIC against Acinetobacter baumannii is above 128 µg/mL; against Staphylococcus aureus [1] it was 32 µg/mL (≈ 73.9 µM); against Staphylococcus aureus [2], 16 µg/mL (≈ 36.9 µM).

Take `CCCCCC1NC(=O)/C(=C/c2ccccc2)O1` (stereo not drawn): the minimal inhibitory concentration (MIC) against Acinetobacter baumannii is above 128 µg/mL; in the experiment with Staphylococcus aureus [1], 128 µg/mL (≈ 522 µM); against Staphylococcus aureus [2] it was 64 µg/mL (≈ 261 µM).

`CCCCCC1NC(=O)/C(=C/c2ccc(C(C)(C)C)cc2)O1` (stereo not drawn): the MIC in the experiment on Acinetobacter baumannii, in the experiment on Staphylococcus aureus [1] and in the experiment with Staphylococcus aureus [2] was above 128 µg/mL in each case.

The compound `CN[C@H](CC(C)C)C(=O)N[C@H]1C(=O)N[C@@H](CC(N)=O)C(=O)N[C@H]2C(=O)N[C@H]3C(=O)N[C@H](C(=O)N[C@H](C(=O)O)c4cc(O)cc(O)c4-c4cc3ccc4O)[C@H](O)c3ccc(c(Cl)c3)Oc3cc2cc(c3O[C@@H]2O[C@H](CO)[C@@H](O)[C@H](O)[C@H]2O[C@H]2C[C@](C)(N)[C@H](O)[C@H](C)O2)Oc2ccc(cc2Cl)[C@H]1O` [VANCOMYCIN] returned an MIC against Acinetobacter baumannii above 128 µg/mL.

For `CCCCCC1NC(=O)/C(=C/c2ccc(F)cc2)O1` (stereo not drawn), the MIC against Acinetobacter baumannii, in the experiment with Staphylococcus aureus [1] and with Staphylococcus aureus [2] was above 128 µg/mL in each case.

`CN(C)[C@@H]1C(O)=C(C(N)=O)C(=O)[C@@]2(O)C(O)=C3C(=O)c4c(O)cccc4[C@@](C)(O)[C@H]3C[C@@H]12` [TETRACYCLINE]: the MIC in the experiment with Acinetobacter baumannii worked out at 2 µg/mL (≈ 4.5 µM); in the experiment on Staphylococcus aureus [1], 128 µg/mL (≈ 288 µM); against Staphylococcus aureus [2], 0.25 µg/mL (≈ 0.563 µM).

`CCCCCC1NC(=O)/C(=C/c2ccc(C(F)(F)F)cc2)O1` (stereo not drawn): the MIC against Acinetobacter baumannii was above 128 µg/mL; in the experiment on Staphylococcus aureus [1], 16 µg/mL (≈ 51.1 µM); against Staphylococcus aureus [2], 16 µg/mL (≈ 51.1 µM).

With `CCCCCC1NC(=O)/C(=C/c2ccc(C)cc2)O1` (stereo not drawn), the MIC against Acinetobacter baumannii was above 128 µg/mL; with Staphylococcus aureus [1], above 128 µg/mL; in the experiment on Staphylococcus aureus [2], 32 µg/mL (≈ 123 µM).

`COc1c(Br)cc(/C=C2\O[C@H](CCCNC(=N)N)NC2=O)cc1Br`: the MIC in the experiment with Acinetobacter baumannii is above 128 µg/mL; in the experiment on Staphylococcus aureus [1], 32 µg/mL (≈ 69.2 µM); in the experiment on Staphylococcus aureus [2], 32 µg/mL (≈ 69.2 µM).

For `CC(=O)NC[C@H]1CN(c2ccc(N3CCOCC3)c(F)c2)C(=O)O1` [LINEZOLID], the minimum inhibitory concentration (MIC) in the experiment on Acinetobacter baumannii was above 128 µg/mL; against Staphylococcus aureus [1], 1 µg/mL (≈ 2.96 µM); against Staphylococcus aureus [2], 0.5 µg/mL (≈ 1.48 µM).

Consider `COc1c(Br)cc(/C=C2\O[C@H]([C@@H](Cl)CCNC(=N)N)NC2=O)cc1Br`, for which the MIC against Acinetobacter baumannii amounted to 100 µg/mL (≈ 201 µM); in the experiment with Staphylococcus aureus [1], 20 µg/mL (≈ 40.3 µM); in the experiment with Staphylococcus aureus [2], 12.5 µg/mL (≈ 25.2 µM).

With `CCCCCC1NC(=O)/C(=C/c2ccccc2[N+](=O)[O-])O1` (stereo not drawn), the MIC against Acinetobacter baumannii, in the experiment on Staphylococcus aureus [1] and in the experiment with Staphylococcus aureus [2] was above 128 µg/mL in each case.

Consider `CCCCCC1NC(=O)/C(=C/c2ccc([N+](=O)[O-])cc2)O1` (stereo not drawn), for which the values for the MIC against Acinetobacter baumannii, against Staphylococcus aureus [1] and with Staphylococcus aureus [2] were above 128 µg/mL, 32 µg/mL (≈ 110 µM) and 32 µg/mL (≈ 110 µM), respectively.

For the compound `CCCCCC1NC(=O)/C(=C/c2ccc(OC)cc2)O1` (stereo not drawn), the MIC against Acinetobacter baumannii, in the experiment with Staphylococcus aureus [1] and with Staphylococcus aureus [2] was above 128 µg/mL in each case.

Consider `CCCCCC1NC(=O)/C(=C/c2ccc(Cl)cc2)O1` (stereo not drawn), for which the MIC against Acinetobacter baumannii, with Staphylococcus aureus [1] and against Staphylococcus aureus [2] was above 128 µg/mL each time.
